Source: ChEMBL document CHEMBL5223091, “Targeting the Mitotic Kinesin KIF18A in Chromosomally Unstable Cancers: Hit Optimization Toward an In Vivo Chemical Probe” (J Med Chem, 2022)
Values after ≈ are worked out from the molar mass of the structure shown. Active and inactive are the calls of the source. The calls are words filed in the database; no cut-off is given here.

Columns and labels:
MDA-MB-157 = assay: Induction of mitotic arrest in TP53 mutant human MDA-MB-157 cells assessed as multipolar spindle arrays by measuring pericentriolar material incubated for 24 hrs by mitotic index assay; type: functional, cell-based; conditions: MDA-MB-157, 24 h
[1] = Passive permeability across apical to basolateral side in dog MDCK-MDR1 cells at 5 uM; type: ADME, cell-based, Canis lupus familiaris; conditions: read-out: permeability
[2] = Cmax in CD-1 mouse xenografted with human OVCAR-3 cells at 100 mg/kg, ip by LC-MS/MS analysis; type: ADME, organism-based; design: dose 100 mg/kg, route ip; conditions: in vivo
OVCAR-3 [3] = assay: Antimitotic activity in human OVCAR-3 cells xenografted in CD-1 mouse assessed as increase in phospho-histone H3 positive cells in tumor at 100 mg/kg, po measured after 24 hrs; type: functional, organism-based
[4] = Unbound fraction in CD-1 mouse plasma xenografted with human OVCAR-3 cells at 100 mg/kg, po by LC-MS/MS analysis; type: ADME, organism-based
OVCAR-3 [5] = assay: Antiproliferative activity against human OVCAR-3 cells by nuclear count assay; type: functional, cell-based
[6] = AUC (0 to 24 hrs) in CD-1 mouse xenografted with human OVCAR-3 cells at 100 mg/kg, po by LC-MS/MS analysis; type: ADME, organism-based; design: dose 100 mg/kg, route po; conditions: in vivo
[7] = molecular target: T1, Kinesin-like protein KIF18A (Mus musculus, UniProt Q91WD7); assay: Inhibition of recombinant His-tagged mouse KIF18A expressed in Trichoplusia ni insect cells assessed as inhibition of microtubule-stimulated ATPase activity preincubated for 30 mins followed by ATP addition and further incubated for 15 mins by ADP-Glo reagent based assay; design: species or system Insect cell
T1 sequence (Q91WD7 whole entry): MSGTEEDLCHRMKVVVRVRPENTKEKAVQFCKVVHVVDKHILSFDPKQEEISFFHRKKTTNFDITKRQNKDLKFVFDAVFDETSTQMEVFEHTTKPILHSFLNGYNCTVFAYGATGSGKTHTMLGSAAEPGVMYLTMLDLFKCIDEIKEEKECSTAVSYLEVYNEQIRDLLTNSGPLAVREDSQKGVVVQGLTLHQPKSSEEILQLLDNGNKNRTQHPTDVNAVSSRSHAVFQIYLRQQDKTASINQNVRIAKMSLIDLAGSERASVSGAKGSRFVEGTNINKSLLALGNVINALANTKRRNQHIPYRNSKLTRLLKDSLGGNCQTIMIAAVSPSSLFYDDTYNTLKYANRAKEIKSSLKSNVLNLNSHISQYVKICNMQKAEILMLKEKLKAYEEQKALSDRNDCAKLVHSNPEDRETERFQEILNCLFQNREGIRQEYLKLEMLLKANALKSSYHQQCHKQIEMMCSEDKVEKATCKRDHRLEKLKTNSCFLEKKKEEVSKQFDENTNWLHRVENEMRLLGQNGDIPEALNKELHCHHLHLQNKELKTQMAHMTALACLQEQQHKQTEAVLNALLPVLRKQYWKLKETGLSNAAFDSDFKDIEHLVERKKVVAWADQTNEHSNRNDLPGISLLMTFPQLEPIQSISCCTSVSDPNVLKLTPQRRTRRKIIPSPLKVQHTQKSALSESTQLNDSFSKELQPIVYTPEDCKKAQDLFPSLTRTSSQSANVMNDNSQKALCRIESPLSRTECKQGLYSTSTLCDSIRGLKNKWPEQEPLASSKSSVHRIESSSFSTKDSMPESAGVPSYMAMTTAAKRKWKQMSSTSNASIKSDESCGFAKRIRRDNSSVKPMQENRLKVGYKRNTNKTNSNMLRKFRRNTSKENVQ

[8] = Plasma concentration in CD-1 mouse xenografted with human OVCAR-3 cells at 100 mg/kg, po measured after 8 hrs; type: ADME, organism-based
OVCAR-3 [9] = assay: Antimitotic activity in human OVCAR-3 cells xenografted in CD-1 mouse assessed as increase in phospho-histone H3 positive cells in tumor at 100 mg/kg, po measured after 8 hrs; type: functional, organism-based
[10] = Kinetic solubility of compound at pH 2; type: physicochemical; conditions: buffer, read-out: Kinetic_solubility
[11] = Metabolic stability in mouse liver microsomes assessed as intrinsic clearance at 0.5 uM incubated upto 40 mins by LCMS analysis; type: ADME, Microsome; conditions: read-out: CLH
[12] = Metabolic stability in human liver microsomes assessed as intrinsic clearance at 0.5 uM incubated upto 40 mins by LCMS analysis; type: ADME, Microsome; conditions: read-out: CLH
[13] = Clearance in CD-1 mouse at 1 mg/kg, iv and 10 mg/kg, po; type: ADME, organism-based; conditions: in vivo
[14] = AUC (0 to 24 hrs) in CD-1 mouse xenografted with human OVCAR-3 cells at 100 mg/kg, ip by LC-MS/MS analysis; type: ADME, organism-based; design: dose 100 mg/kg, route ip; conditions: in vivo
[15] = molecular target: T2, Kinesin-like protein KIF11 (Homo sapiens, UniProt P52732); assay: Inhibition of recombinant GST-tagged human Eg5 assessed as inhibition of microtubule-stimulated ATPase activity preincubated for 30 mins followed by ATP addition and further incubated for 15 mins by ADP-Glo reagent based assay
T2 sequence (P52732 whole entry): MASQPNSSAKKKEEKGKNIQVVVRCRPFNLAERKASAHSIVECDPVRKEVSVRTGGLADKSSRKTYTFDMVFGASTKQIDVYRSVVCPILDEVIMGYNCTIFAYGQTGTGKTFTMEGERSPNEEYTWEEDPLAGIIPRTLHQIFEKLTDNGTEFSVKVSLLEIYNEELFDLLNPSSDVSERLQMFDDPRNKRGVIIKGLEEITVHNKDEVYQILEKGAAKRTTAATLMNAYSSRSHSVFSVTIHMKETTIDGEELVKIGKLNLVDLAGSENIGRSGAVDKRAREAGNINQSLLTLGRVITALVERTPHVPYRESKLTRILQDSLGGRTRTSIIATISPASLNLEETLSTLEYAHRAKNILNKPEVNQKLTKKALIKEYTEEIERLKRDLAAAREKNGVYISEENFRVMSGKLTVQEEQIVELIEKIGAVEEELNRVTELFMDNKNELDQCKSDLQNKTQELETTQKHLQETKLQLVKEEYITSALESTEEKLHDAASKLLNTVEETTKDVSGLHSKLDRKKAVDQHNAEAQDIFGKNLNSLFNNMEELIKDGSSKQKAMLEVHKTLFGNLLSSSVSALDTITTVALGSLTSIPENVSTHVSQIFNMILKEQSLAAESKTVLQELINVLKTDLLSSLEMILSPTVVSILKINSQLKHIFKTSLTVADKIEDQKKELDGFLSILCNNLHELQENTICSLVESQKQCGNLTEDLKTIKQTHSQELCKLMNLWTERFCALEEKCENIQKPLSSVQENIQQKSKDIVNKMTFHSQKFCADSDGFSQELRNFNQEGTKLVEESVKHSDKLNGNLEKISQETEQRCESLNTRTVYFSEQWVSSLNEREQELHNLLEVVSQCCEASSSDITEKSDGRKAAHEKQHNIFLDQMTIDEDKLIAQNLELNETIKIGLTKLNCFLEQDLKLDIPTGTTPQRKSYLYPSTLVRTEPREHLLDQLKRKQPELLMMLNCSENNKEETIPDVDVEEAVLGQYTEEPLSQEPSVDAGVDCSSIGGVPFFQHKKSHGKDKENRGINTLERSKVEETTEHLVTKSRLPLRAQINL

## CC(C)(C)NS(=O)(=O)c1cccc(NC(=O)c2ncc(NS(C)(=O)=O)nc2N2CCC3(CC2)CC3)n1
MDA-MB-157
  IC50: 32 nM
[1]
  Papp A→B at 5 µM: < 0.3 ×10⁻⁶ cm/s
[2]
  Cmax: 22.6 µM
OVCAR-3 [3]
  Activity: inactive
[4]
  fraction unbound: 0.022
OVCAR-3 [5]
  EC50: 32 nM
[6]
  AUC(0-t): 25.7 µM·h
[7]
  IC50: 77 nM
[8]
  concentration at 8 h: 5.7 µM
OVCAR-3 [9]
  Activity: Active
[10]
  solubility kinetic: 500 µM (≈ 269 µg/mL)
[11]
  microsomal CLint at 0.5 µM: 64 µL/min/mg
[12]
  microsomal CLint at 0.5 µM: 127 µL/min/mg
[13]
  CL: 23.3 mL/min/kg
[14]
  AUC(0-t): 116 µM·h
[15]
  IC50: > 100000 nM
